Assay results reported in ChEMBL document CHEMBL1201862, “PubChem BioAssay data set” (2004).
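Protocol summary: plate cells (96-well), add compound at 5 concentrations, incubate 48 h, interpolate endpoints linearly. Abbreviation: GI50, concentration required for 50% inhibition of growth.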 Active and inactive are the calls of the source. No stated cut-off is given here; in the data, active = GI50 up to about 1.1 µM and inactive = higher.

Columns and labels:
Assay in all cases: NCI tumour cell line growth inhibition, 48 h
786-0 = system: 786-0
A498 = system: A498
A549 = system: A549
ACHN = system: ACHN
CAKI-1 = system: CAKI-1
CCRF-CEM = system: CCRF-CEM
COLO 205 = system: COLO 205
DU-145 = system: DU-145
EKVX = system: EKVX
HCC 2998 = system: HCC 2998
HCT-116 = system: HCT-116
HCT-15 = system: HCT-15
HL-60 = system: HL-60
HOP-62 = system: HOP-62
HOP-92 = system: HOP-92
HT-29 = system: HT-29
Hs-578T = system: Hs-578T
IGROV-1 = system: IGROV-1
K562 = system: K562
KM12 = system: KM12
LOX IMVI = system: LOX IMVI
M14 = system: M14
MDA-MB-231 = system: MDA-MB-231
MDA-MB-435 = system: MDA-MB-435
MDA-N = system: MDA-N
MOLT-4 = system: MOLT-4
Malme-3M = system: Malme-3M
NCI-H226 = system: NCI-H226
NCI-H23 = system: NCI-H23
NCI-H460 = system: NCI-H460
NCI-H522 = system: NCI-H522
NCI/ADR-RES = system: NCI/ADR-RES
OVCAR-3 = system: OVCAR-3
OVCAR-4 = system: OVCAR-4
OVCAR-5 = system: OVCAR-5
OVCAR-8 = system: OVCAR-8
PC-3 = system: PC-3
RPMI-8226 = system: RPMI-8226
RXF 393 = system: RXF 393
SF-268 = system: SF-268
SF-539 = system: SF-539
SK-MEL-28 = system: SK-MEL-28
SK-MEL-2 = system: SK-MEL-2
SK-MEL-5 = system: SK-MEL-5
SN12C = system: SN12C
SNB-19 = system: SNB-19
SNB-75 = system: SNB-75
SR = system: SR
SW-620 = system: SW-620
TK-10 = system: TK-10
U-251 = system: U-251
UACC-257 = system: UACC-257
UACC-62 = system: UACC-62
UO-31 = system: UO-31
MCF7 = system: MCF7
SF-295 = system: SF-295
SK-OV-3 = system: SK-OV-3

In the case of `O=c1[nH]n(Cc2ccccc2Cl)c2ccccc12`, the GI50 (786-0) is reported as > 100 µM (inactive), the GI50 (A498) is reported as > 100 µM (inactive) and the GI50 (A549) is reported as > 100 µM (inactive). The GI50 (ACHN) was > 100 µM (inactive), the GI50 (CAKI-1) was > 100 µM (inactive) and the GI50 (CCRF-CEM) was > 100 µM (inactive). For the same compound, the GI50 (COLO 205) was > 100 µM (inactive), the GI50 (DU-145) was > 100 µM (inactive) and the GI50 (EKVX) was > 100 µM (inactive). For the same compound, the GI50 (HCC 2998) was > 100 µM (inactive), the GI50 (HCT-116) was > 100 µM (inactive) and the GI50 (HCT-15) was greater than 100 µM. For the same compound, the GI50 (HL-60) was > 100 µM (inactive), the GI50 (HOP-62) was > 100 µM (inactive) and the GI50 (HOP-92) was 62.4 µM (inactive). The GI50 (HT-29) was > 100 µM (inactive), the GI50 (Hs-578T) was > 100 µM (inactive) and the GI50 (IGROV-1) was > 100 µM (inactive). For the same compound, the GI50 (K562) was > 100 µM (inactive), the GI50 (KM12) was > 100 µM (inactive) and the GI50 (LOX IMVI) was > 100 µM (inactive). For the same compound, the GI50 (M14) was > 100 µM (inactive), the GI50 (MDA-MB-231) was > 100 µM (inactive) and the GI50 (MDA-MB-435) was > 100 µM (inactive). For the same compound, the GI50 (MDA-N) was > 100 µM (inactive), the GI50 (MOLT-4) was > 100 µM (inactive) and the GI50 (Malme-3M) was > 100 µM (inactive). The GI50 (NCI-H226) was > 100 µM (inactive), the GI50 (NCI-H23) was > 100 µM (inactive) and the GI50 (NCI-H460) was > 100 µM (inactive). For the same compound, the GI50 (NCI-H522) was > 100 µM (inactive), the GI50 (NCI/ADR-RES) was > 100 µM (inactive) and the GI50 (OVCAR-3) was 73.1 µM (inactive). The GI50 (OVCAR-4) was > 100 µM (inactive), the GI50 (OVCAR-5) was > 100 µM (inactive) and the GI50 (OVCAR-8) was > 100 µM (inactive). For the same compound, the GI50 (PC-3) was > 100 µM (inactive), the GI50 (RPMI-8226) was > 100 µM (inactive) and the GI50 (RXF 393) was > 10 µM (inactive). The GI50 (SF-268) was 40.6 µM (inactive), the GI50 (SF-539) was > 100 µM (inactive) and the GI50 (SK-MEL-28) was > 100 µM (inactive). For the same compound, the GI50 (SK-MEL-2) was > 100 µM (inactive), the GI50 (SK-MEL-5) was > 100 µM (inactive) and the GI50 (SN12C) was > 100 µM (inactive). For the same compound, the GI50 (SNB-19) was > 100 µM (inactive), the GI50 (SNB-75) was 45.5 µM (inactive) and the GI50 (SR) was > 100 µM (inactive). The GI50 (SW-620) was > 100 µM (inactive), the GI50 (TK-10) was > 100 µM (inactive) and the GI50 (U-251) was > 100 µM (inactive). The GI50 (UACC-257) was 38.9 µM (inactive), the GI50 (UACC-62) was > 100 µM (inactive) and the GI50 (UO-31) was > 100 µM (inactive).
In the case of `COc1cc([C@@H]2c3cc4c(cc3C[C@H]3COC(=O)[C@@H]32)OCO4)cc2c1OCO2` [AUSTROBAILIGNAN 1], the GI50 (786-0) is reported as < 0.01 µM (active), the GI50 (A498) is reported as < 0.01 µM (active) and the GI50 (A549) is reported as < 0.01 µM (active). The GI50 (ACHN) was < 0.0121 µM (active), the GI50 (CAKI-1) was < 0.01 µM (active) and the GI50 (CCRF-CEM) was 0.664 µM (active). The GI50 (COLO 205) was 0.0108 µM (active), the GI50 (DU-145) was < 0.01 µM (active) and the GI50 (EKVX) was < 0.01 µM (active). The GI50 (HCC 2998) was < 0.01 µM (active), the GI50 (HCT-116) was < 0.01 µM (active) and the GI50 (HCT-15) was less than 0.01 µM. The GI50 (HOP-62) was < 0.01 µM (active), the GI50 (HOP-92) was < 0.01 µM (active) and the GI50 (HT-29) was < 0.01 µM (active). The GI50 (Hs-578T) was < 0.01 µM (active), the GI50 (IGROV-1) was < 0.01 µM (active) and the GI50 (KM12) was 0.132 µM (active). The GI50 (LOX IMVI) was < 0.01 µM (active), the GI50 (M14) was < 0.01 µM (active) and the GI50 (MCF7) was < 0.01 µM (active). The GI50 (MDA-MB-231) was < 0.01 µM (active), the GI50 (MDA-MB-435) was < 0.01 µM (active) and the GI50 (MDA-N) was < 0.01 µM (active). The GI50 (MOLT-4) was < 0.01 µM (active), the GI50 (Malme-3M) was < 0.01 µM (active) and the GI50 (NCI-H226) was < 0.01 µM (active). For the same compound, the GI50 (NCI-H23) was < 0.01 µM (active), the GI50 (NCI-H460) was < 0.01 µM (active) and the GI50 (NCI-H522) was < 0.01 µM (active). For the same compound, the GI50 (NCI/ADR-RES) was < 0.01 µM (active), the GI50 (OVCAR-3) was < 0.01 µM (active) and the GI50 (OVCAR-4) was 11.4 µM (inactive). The GI50 (OVCAR-5) was < 0.01 µM (active), the GI50 (OVCAR-8) was < 0.01 µM (active) and the GI50 (PC-3) was < 0.01 µM (active). For the same compound, the GI50 (RPMI-8226) was < 0.01 µM (active), the GI50 (RXF 393) was < 0.01 µM (active) and the GI50 (SF-268) was < 0.01 µM (active). The GI50 (SF-295) was < 0.01 µM (active), the GI50 (SF-539) was < 0.01 µM (active) and the GI50 (SK-MEL-28) was < 0.01 µM (active). For the same compound, the GI50 (SK-MEL-2) was < 0.01 µM (active), the GI50 (SK-MEL-5) was < 0.01 µM (active) and the GI50 (SK-OV-3) was < 0.01 µM (active). The GI50 (SN12C) was < 0.01 µM (active), the GI50 (SNB-19) was < 0.01 µM (active) and the GI50 (SNB-75) was 0.0278 µM (active). For the same compound, the GI50 (SR) was < 0.01 µM (active), the GI50 (SW-620) was < 0.01 µM (active) and the GI50 (TK-10) was 1.99 µM (inactive). The GI50 (U-251) was < 0.01 µM (active), the GI50 (UACC-62) was < 0.01 µM (active) and the GI50 (UO-31) was < 0.01 µM (active).
